From patent publication US9193728B2, “Fused tetracyclic pyrido [4,3-B] indole and pyrido [3,4-B] indole derivatives and methods of use” (Medivation Technologies, Inc., priority 2010, dated 2015)

How the values were obtained:
[1] = target: T1, human recombinant dopamine D2L receptor (Homo sapiens, UniProt P14416); assay: Dopamine D2L radioligand binding ([3H]Spiperone); details: compound at 1 μM; for inhibition at 1 µM: read-out: Dopamine (1 μM) D2L, percentage inhibition of ligand binding
T1 construct: expressed in transfected cells; host or cells: CHO
Protocol: To evaluate in radioligand binding assays the activity of compounds of the invention, human recombinant dopamine D2L receptor expressed in Chinese hamster ovary (CHO) cells (Grandy, D. et al, Proc. Natl. Acad. Sci. USA. 86:9762, 1989; Hayes, G. et al, Mol. Endocrinol. 6:920, 1992) in a modified Tris-HCl buffer (50 mM Tris-HCl, pH 7.4, 1.4 mM Ascorbic Acid, 0.001% BSA, 150 mM NaCl) was used. Compounds of the invention were incubated with 0.16 nM [^3H]Spiperone for 120 min. at 25° C. Non-specific binding was estimated in the presence of 10 μM Haloperidol. Receptor proteins were filtered and washed, the filters were then counted to determine [^3H]Spiperone specifically bound. Compounds were screened at 1 μM or lower, using 1% DMSO as vehicle. Biochemical assay results are presented as the percent inhibition of specific binding in Table 3.

[2] = target: T2, human recombinant serotonin (5-Hydroxytryptamine) 5-HT2C receptor (Homo sapiens, UniProt P28335); assay: Serotonin 5-HT2C radioligand binding ([3H]Mesulergine); details: for inhibition at 0.1 µM / Serotonin (0.1 μM) 5-HT2C, percentage inhibition of ligand binding: compound at 0.1 μM; for inhibition at 0.1 µM: read-out: Serotonin (0.1 μM) 5-HT2C, percentage inhibition of ligand binding
T2 construct: expressed in transfected cells; host or cells: CHO-K1
T2 sequence (P28335 33-458): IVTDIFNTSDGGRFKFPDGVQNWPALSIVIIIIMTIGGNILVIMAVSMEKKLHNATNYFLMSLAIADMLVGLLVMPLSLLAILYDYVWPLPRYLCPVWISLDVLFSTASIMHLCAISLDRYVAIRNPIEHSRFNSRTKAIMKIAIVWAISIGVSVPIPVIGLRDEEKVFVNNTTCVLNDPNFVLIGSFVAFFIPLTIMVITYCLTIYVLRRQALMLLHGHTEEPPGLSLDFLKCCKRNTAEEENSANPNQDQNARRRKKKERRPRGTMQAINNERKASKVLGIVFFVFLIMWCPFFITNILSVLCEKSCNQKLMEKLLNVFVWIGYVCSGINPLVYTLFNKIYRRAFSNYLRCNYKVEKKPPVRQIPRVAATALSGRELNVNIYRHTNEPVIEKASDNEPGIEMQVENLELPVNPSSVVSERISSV
Protocol: To evaluate in radioligand binding assays the activity of compounds of the invention, human recombinant serotonin (5-Hydroxytryptamine) 5-HT2C receptor expressed in Chinese hamster ovary (CHO)-K1 cells (Wolf, W. et al, J. Neurochem. 69:1449, 1997) in a modified Tris-HCl buffer (50 mM Tris-HCl, pH 7.4, 0.1% Ascorbic Acid, 10 μM Pargyline) was used. Compounds of the invention were incubated with 1 nM [^3H]Mesulergine for 60 min. at 25° C. Non-specific binding was estimated in the presence of 1 μM Mianserin. Receptor proteins were filtered and washed, the filters were then counted to determine [^3H]Mesulergine specifically bound. Compounds were screened at 1 μM or lower, using 1% DMSO as vehicle. Biochemical assay results are presented as the percent inhibition of specific binding in Table 4.

[3] = target: T3, human recombinant serotonin (5-Hydroxytryptamine) 5-HT6 receptor (Homo sapiens, UniProt P50406); assay: Serotonin 5-HT6 radioligand binding ([3H]LSD); details: for inhibition at 0.1 µM / Serotonin (0.1 μM) 5-HT6, percentage inhibition of ligand binding: compound at 0.1 μM; for inhibition at 0.1 µM: read-out: Serotonin (0.1 μM) 5-HT6, percentage inhibition of ligand binding
T3 construct: expressed in transfected cells; host or cells: HeLa
Protocol: To evaluate in radioligand binding assays the activity of compounds of the invention, human recombinant serotonin (5-Hydroxytryptamine) 5-HT6 receptor expressed in human HeLa cells (Monsma, F. Jr. et al, Mol. Pharmacol. 43:320, 1993) in a modified Tris-HCl buffer (50 mM Tris-HCl, pH 7.4, 150 mM NaCl, 2 mM Ascorbic Acid, 0.001% BSA) was used. Compounds of the invention were incubated with 1.5 nM [3H]Lysergic acid diethylamide (LSD) for 120 min. at 37° C. Non-specific binding was estimated in the presence of 5 μM Serotonin (5-HT). Receptor proteins were filtered and washed, the filters were then counted to determine [3H]LSD specifically bound. Compounds were screened at 1 μM or lower, using 1% DMSO as vehicle. Biochemical assay results are presented as the percent inhibition of specific binding in Table 4.

[4] = target: T4, human recombinant serotonin (5-Hydroxytryptamine) 5-HT5A receptor (Homo sapiens, UniProt P47898); assay: Serotonin 5-HT5A radioligand binding ([3H]LSD); details: compound at 0.1 μM; for inhibition at 0.1 µM: read-out: Serotonin (0.1 μM) 5-HT5A, percentage inhibition of ligand binding
T4 construct: expressed in transfected cells; host or cells: CHO-K1
Protocol: To evaluate in radioligand binding assays the activity of compounds of the invention, human recombinant serotonin (5-Hydroxytryptamine) 5-HT5A receptor expressed in Chinese hamster ovary (CHO)-K1 cells (Rees, S. et al, FEBS Lett. 355:242, 1994) in a modified Tris-HCl buffer (50 mM Tris-HCl, pH 7.4, 10 mM MgCl2, 0.5 mM EDTA) was used. Compounds of the invention were incubated with 1.7 nM [^3H]Lysergic acid diethylamide (LSD) for 60 min. at 37° C. Non-specific binding was estimated in the presence of 100 μM Serotonin (5-HT). Receptor proteins were filtered and washed, the filters were counted to determine [^3H]LSD specifically bound. Compounds were screened at 1 μM or lower, using 1% DMSO as vehicle. Biochemical assay results are presented as the percent inhibition of specific binding in Table 4.

T1 sequence (P14416 whole entry): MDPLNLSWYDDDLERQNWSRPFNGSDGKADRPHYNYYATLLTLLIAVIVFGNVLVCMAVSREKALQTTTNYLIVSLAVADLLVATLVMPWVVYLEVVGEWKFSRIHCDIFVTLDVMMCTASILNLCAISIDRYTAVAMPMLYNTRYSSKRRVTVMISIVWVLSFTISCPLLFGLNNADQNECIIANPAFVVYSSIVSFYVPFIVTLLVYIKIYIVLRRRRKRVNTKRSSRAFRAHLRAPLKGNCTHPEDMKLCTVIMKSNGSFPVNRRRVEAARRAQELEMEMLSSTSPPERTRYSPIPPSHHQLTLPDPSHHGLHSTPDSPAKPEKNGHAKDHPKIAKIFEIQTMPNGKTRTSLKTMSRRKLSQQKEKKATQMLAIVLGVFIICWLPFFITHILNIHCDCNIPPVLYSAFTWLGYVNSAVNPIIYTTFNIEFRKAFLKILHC
T3 sequence (P50406 whole entry): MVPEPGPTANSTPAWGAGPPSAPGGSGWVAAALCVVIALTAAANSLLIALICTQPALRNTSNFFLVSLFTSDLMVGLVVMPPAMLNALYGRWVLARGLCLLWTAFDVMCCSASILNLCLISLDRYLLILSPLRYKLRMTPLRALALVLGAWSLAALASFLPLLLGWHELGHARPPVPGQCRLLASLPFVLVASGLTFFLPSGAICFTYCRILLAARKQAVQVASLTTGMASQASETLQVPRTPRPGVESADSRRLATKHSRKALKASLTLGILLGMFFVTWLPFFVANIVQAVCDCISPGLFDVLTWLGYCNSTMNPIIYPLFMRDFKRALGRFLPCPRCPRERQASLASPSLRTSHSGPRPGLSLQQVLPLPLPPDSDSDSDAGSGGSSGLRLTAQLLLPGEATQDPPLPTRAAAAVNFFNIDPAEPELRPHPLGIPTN
T4 sequence (P47898 whole entry): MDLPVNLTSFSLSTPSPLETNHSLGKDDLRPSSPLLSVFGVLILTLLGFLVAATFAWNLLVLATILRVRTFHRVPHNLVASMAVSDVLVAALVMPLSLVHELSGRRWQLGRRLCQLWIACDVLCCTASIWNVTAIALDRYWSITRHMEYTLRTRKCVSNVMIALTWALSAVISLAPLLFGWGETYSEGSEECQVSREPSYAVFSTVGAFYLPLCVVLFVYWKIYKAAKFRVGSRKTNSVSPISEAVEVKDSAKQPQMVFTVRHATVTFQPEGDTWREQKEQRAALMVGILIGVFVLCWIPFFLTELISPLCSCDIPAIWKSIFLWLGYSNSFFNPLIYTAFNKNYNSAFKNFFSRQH

| Compound | inhibition at 1 µM [1] | inhibition at 0.1 µM [2] | inhibition at 1 µM ([2]; compound at 1 μM, read-out: Serotonin (1 μM) 5-HT2C, percentage inhibition of ligand binding) | inhibition at 0.1 µM [3] | inhibition at 1 µM ([3]; compound at 1 μM, read-out: Serotonin (1 μM) 5-HT6, percentage inhibition of ligand binding) | inhibition at 0.1 µM [4] | Dopamine (1 μM) D2L, percentage inhibition of ligand binding [1] | Serotonin (0.1 μM) 5-HT2C, percentage inhibition of ligand binding [2] | Serotonin (0.1 μM) 5-HT5A, percentage inhibition of ligand binding [4] | Serotonin (0.1 μM) 5-HT6, percentage inhibition of ligand binding [3] |
| --- | --- | --- | --- | --- | --- | --- | --- | --- | --- | --- |
| Cc1cc2c3c(c1)c1c(n3CC(c3ccc(F)cc3)C2)CCN(C)C1 (centres unmarked) [Compound 3] | 96% | 54% | 95% | 80% | 96% |  |  |  |  |  |
| Cc1cc2c3c(c1)c1c(n3CC(C)(c3ccc(C)nc3)OC(C)C2)CCN(C)C1 (centres unmarked) [Compound 160] | 7% | 7% |  | -10% |  | 2% |  |  |  |  |
| Cc1cc2c3c(c1)c1c(n3CC(C)(c3ccc(C)nc3)OC2C)CCN(C)C1 (centres unmarked) [Compound 161] |  |  |  |  |  |  | 10% | −4% | 4% | −8% |
| Cc1cc2c3c(c1)c1c(n3C[C@@](C)(c3ccncc3)O[C@H]2C)CCN(C)C1 [Compound 162] | 11% | 6% |  | -8% |  | 16% |  |  |  |  |
| Cc1cc2c3c(c1)c1c(n3C[C@](C)(c3ccncc3)O[C@H]2C)CCN(C)C1 [Compound 163] | 15% | 5% |  | 8% |  | 10% |  |  |  |  |
| Cc1cc2c3c(c1)c1c(n3CC(C)(c3ccc(C)nc3)OC2C)CCN(C)C1 (centres unmarked) [Compound 164] |  |  |  |  |  |  | 3% | 2% | −22% | −9% |
| Cc1cc2c3c(c1)c1c(n3CC(C)(c3ccncc3)OC(C)C2)CCN(C)C1 (centres unmarked) [Compound 165] | 10% | 14% |  | 10% |  | 16% |  |  |  |  |
